In patent EP2776398B1, “SUBSTITUTED PYRAZOLYL-BASED UREA DERIVATIVES AS VANILLOID RECEPTOR LIGANDS” (Medifron DBT Inc., priority 2011, dated 2013):

What follows are molecules tested against T1, vanilloid receptor 1 (VR1/TRPV1 receptor) (Homo sapiens, UniProt Q8NER1) (assay: Functional testing on vanilloid receptor 1: FLIPR Ca2+ influx assay against capsaicin (Cap) in transfected CHO K1 cells (pharmacological method II)). Conditions: @ 1µM; human VR1 in CHO K1 cells; capsaicin; relative to maximum inhibition with 10 µM capsazepine; read-out: inhibition (as a percentage), printed in column (f) Ki (human being) [nM] Cap.
T1 construct: expressed in transfected cells; host or cells: CHO K1 cells (ECACC), stably transfected
T1 sequence (Q8NER1 whole entry): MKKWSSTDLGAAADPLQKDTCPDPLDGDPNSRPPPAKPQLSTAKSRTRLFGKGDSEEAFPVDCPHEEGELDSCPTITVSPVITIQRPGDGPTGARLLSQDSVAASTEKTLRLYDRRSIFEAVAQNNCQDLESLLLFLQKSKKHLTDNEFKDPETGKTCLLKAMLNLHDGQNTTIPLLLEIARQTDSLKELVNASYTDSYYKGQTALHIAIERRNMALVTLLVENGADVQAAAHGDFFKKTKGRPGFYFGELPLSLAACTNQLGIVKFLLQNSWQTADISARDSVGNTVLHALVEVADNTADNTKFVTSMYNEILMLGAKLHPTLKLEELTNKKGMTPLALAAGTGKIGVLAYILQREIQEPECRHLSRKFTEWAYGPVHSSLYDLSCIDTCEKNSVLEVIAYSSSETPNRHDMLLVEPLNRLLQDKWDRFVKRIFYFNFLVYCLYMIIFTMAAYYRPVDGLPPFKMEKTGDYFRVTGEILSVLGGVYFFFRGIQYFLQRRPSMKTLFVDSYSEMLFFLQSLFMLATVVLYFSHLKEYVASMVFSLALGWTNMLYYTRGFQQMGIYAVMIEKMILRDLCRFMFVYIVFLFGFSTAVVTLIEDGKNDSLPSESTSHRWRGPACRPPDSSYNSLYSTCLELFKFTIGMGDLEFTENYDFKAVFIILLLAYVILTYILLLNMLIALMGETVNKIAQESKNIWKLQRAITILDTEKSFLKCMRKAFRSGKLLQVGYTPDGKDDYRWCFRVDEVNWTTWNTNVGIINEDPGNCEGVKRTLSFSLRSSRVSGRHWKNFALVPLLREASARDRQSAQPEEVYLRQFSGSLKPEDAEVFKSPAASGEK
Type: cell-based
Parameters: key to (f) Ki (human being) [nM] Cap: agonist classification: AG = agonist
Text: […]
For Ki in this document: 100 nM capsaicin.

| inhibition at 1 µM | Structure (SMILES) |
| --- | --- |
| 15% | CCOc1cc(C)cc(-n2nc(C(F)(F)F)cc2CNC(=O)Nc2ccc(COCCO)c(F)c2)c1 [A135, 1-[[2-(3-Ethoxy-5-methyl-phenyl)-5-(trifluoromethyl)-2H-pyrazol-3-yl]-methyl]-3-[3-fluoro-4-(2-hydroxy-ethoxy-methyl)-phenyl]-urea] |

Same assay, conditions: @ 5µM; human VR1 in CHO K1 cells; capsaicin; relative to maximum inhibition with 10 µM capsazepine; read-out: inhibition (as a percentage), printed in column (f) Ki (human being) [nM] Cap

| inhibition at 5 µM | Structure (SMILES) |
| --- | --- |
| 50% | O=C(NCc1cc(C(F)(F)F)nn1-c1cccc(Cl)c1)Nc1ccc(C(CO)CO)c(F)c1 [A153, 1-[[2-(3-Chlorophenyl)-5-(trifluoromethyl)-2H-pyrazol-3-yl]-methyl]-3-[3-fluoro-4-[2-hydroxy-1-(hydroxymethyl)-ethyl]-phenyl]-urea] |

Same assay, conditions: human VR1 in CHO K1 cells; AG printed instead of a Ki

| (f) Ki (human being) [nM] Cap: agonist classification | Structure (SMILES) |
| --- | --- |
| AG | CC(C(=O)NCc1cc(C(C)(C)C)nn1-c1cccc(Cl)c1)c1ccc(C(O)CO)c(F)c1 (stereo not drawn) [A145, N-[[5-tert-Butyl-2-(3-chlorophenyl)-2H-pyrazol-3-yl]-methyl]-2-[4-(1,2-dihydroxy-ethyl)-3-fluoro-phenyl]-propionamide] |
| AG | COCCOc1ccc(NC(=O)NCc2cc(C(C)(C)C)nn2-c2cccc(Cl)c2)cc1F [A17, 1-[[5-tert-Butyl-2-(3-chlorophenyl)-2H-pyrazol-3-yl]-methyl]-3-[3-fluoro-4-(2-methoxy-ethoxy)-phenyl]-urea] |
| AG | CC(O)c1ccc(C(C)C(=O)NCc2cc(C(C)(C)C)nn2-c2cccc(Cl)c2)cc1F (stereo not drawn) [A98, N-[[5-tert-Butyl-2-(3-chlorophenyl)-2H-pyrazol-3-yl]-methyl]-2-[3-fluoro-4-(1-hydroxy-ethyl)-phenyl]-propionamide] |

Same assay, conditions: read-out: (f) Ki (human being) [nM] Cap

| Ki | Structure (SMILES) |
| --- | --- |
| 2 nM | COc1c(F)cc(C(C)C(=O)NCc2cc(C(C)(C)C)nn2-c2cccc(Cl)c2)cc1F (stereo not drawn) [A4, N-[[5-tert-Butyl-2-(3-chlorophenyl)-2H-pyrazol-3-yl]-methyl]-2-(3,5-difluoro-4-methoxy-phenyl)-propionamide] |
| 46 nM | CC(C(=O)NCc1cc(C(F)(F)F)nn1-c1ccc(F)cc1)c1ccc(CO)c(F)c1 (stereo not drawn) [A46, 2-[3-Fluoro-4-(hydroxymethyl)-phenyl]-N-[[2-(4-fluorophenyl)-5-(trifluoromethyl)-2H-pyrazol-3-yl]-methyl]-propionamide] |
| 45 nM | O=C(NCc1cc(C(F)(F)F)nn1-c1cccc(Cl)c1Cl)Nc1ccc(CO)c(F)c1 [A89, 1-[[2-(2,3-Dichloro-phenyl)-5-(trifluoromethyl)-2H-pyrazol-3-yl]-methyl]-3-[3-fluoro-4-(hydroxymethyl)-phenyl]-urea] |
| 12 nM | O=C(NCc1cc(C(F)(F)F)nn1-c1cccc(Cl)c1Cl)Nc1ccc(COCCO)c(F)c1 [A133, 1-[[2-(2,3-Dichloro-phenyl)-5-(trifluoromethyl)-2H-pyrazol-3-yl]-methyl]-3-[3-fluoro-4-(2-hydroxy-ethoxy-methyl)-phenyl]-urea] |
| 30 nM | O=C(NCc1cc(C(F)(F)F)nn1-c1cccc(F)c1)Nc1ccc(CO)c(F)c1 [A62, 1-[3-Fluoro-4-(hydroxymethyl)-phenyl]-3-[[2-(3-fluorophenyl)-5-(trifluoromethyl)-2H-pyrazol-3-yl]-methyl]-urea] |
| 37 nM | C[C@H](C(=O)NCc1cc(C(F)(F)F)nn1-c1cccc(Cl)c1)c1ccc(CO)c(F)c1 [A34, (2S)-N-[[2-(3-Chlorophenyl)-5-(trifluoromethyl)-2H-pyrazol-3-yl]-methyl]-2-[3-fluoro-4-(hydroxymethyl)-phenyl]-propionamide] |
| 3 nM | CC(C(=O)NCc1cc(C2CC2)nn1-c1cccc(Cl)c1)c1ccc(CO)c(F)c1 (stereo not drawn) [A31, N-[[2-(3-Chlorophenyl)-5-cyclopropyl-2H-pyrazol-3-yl]-methyl]-2-[3-fluoro-4-(hydroxymethyl)-phenyl]-propionamide] |
| 11 nM | O=C(NCc1cc(C(F)(F)F)nn1-c1cccc(Cl)c1)Nc1ccc(CO)c(Cl)c1 [A97, 1-[3-Chloro-4-(hydroxymethyl)-phenyl]-3-[[2-(3-chlorophenyl)-5-(trifluoromethyl)-2H-pyrazol-3-yl]-methyl]-urea] |
| 51 nM | COc1ccc(Cl)cc1-n1nc(C(F)(F)F)cc1CNC(=O)Nc1ccc(CO)c(F)c1 [A91, 1-[[2-(5-Chloro-2-methoxy-phenyl)-5-(trifluoromethyl)-2H-pyrazol-3-yl]-methyl]-3-[3-fluoro-4-(hydroxymethyl)-phenyl]-urea] |
| 48 nM | O=C(NCc1cc(C(F)(F)F)nn1-c1cccc(Cl)c1)Nc1ccc(C2(O)COC2)cc1 [A108, 1-[[2-(3-Chlorophenyl)-5-(trifluoromethyl)-2H-pyrazol-3-yl]-methyl]-3-[4-(3-hydroxy-oxetan-3-yl)-phenyl]-urea] |
| 9 nM | Cc1cccc(-n2nc(C(F)(F)F)cc2CNC(=O)Nc2ccc(CO)c(F)c2)c1 [A70, 1-[3-Fluoro-4-(hydroxymethyl)-phenyl]-3-[[2-(m-tolyl)-5-(trifluoromethyl)-2H-pyrazol-3-yl]-methyl]-urea] |
| 44 nM | Cc1ccc(C)c(-n2nc(C(F)(F)F)cc2CNC(=O)Nc2ccc(CO)c(F)c2)c1 [A74, 1-[[2-(2,5-Dimethyl-phenyl)-5-(trifluoromethyl)-2H-pyrazol-3-yl]-methyl]-3-[3-fluoro-4-(hydroxymethyl)-phenyl]-urea] |
| 26 nM | COc1c(F)cc(CC(=O)NCc2cc(C(F)(F)F)nn2-c2ccc(F)c(Cl)c2)cc1F [A7, N-[[2-(3-Chloro-4-fluoro-phenyl)-5-(trifluoromethyl)-2H-pyrazol-3-yl]-methyl]-2-(3,5-difluoro-4-methoxy-phenyl)-acetamide] |
